According to ChEMBL document CHEMBL1127571, “S-(N-aryl-N-hydroxycarbamoyl)glutathione derivatives are tight-binding inhibitors of glyoxalase I and slow substrates for glyoxalase II” (J Med Chem, 1994):

Experiments:
[1] = tested on: NC(CCC(=O)NC(CSC(=O)N(O)c1ccccc1)C(=O)NCC(=O)O)C(=O)O; settings: Bos taurus
Description: Michaelis-Menten constant was tested for inhibitory activity against bovine liver glyoxalase II

[2] = Vm value of the compound; type: ADME

Row | Molecule | Km [1] | Vm [2]
1 | Hydroxyacylglutathione hydrolase, mitochondrial (Homo sapiens) (from UniProt Q16775) | 13 µM | 
2 | NC(CCC(=O)NC(CSC(=O)N(O)c1ccc(Cl)cc1)C(=O)NCC(=O)O)C(=O)O (centres undefined) |  | 1.5e-05
3 | NC(CCC(=O)NC(CSC(=O)N(O)c1ccc(Br)cc1)C(=O)NCC(=O)O)C(=O)O (centres undefined) |  | 2.1e-05
4 | NC(CCC(=O)NC(CSC(=O)N(O)c1ccccc1)C(=O)NCC(=O)O)C(=O)O (centres undefined) |  | 4.6e-06
